Article PMC11858854, “In Vitro and In Vivo Assessment of Pharmacokinetic Profile of Peramivir in the Context of Inhalation Therapy” (Pharmaceuticals, 2025)

Tests used:
[1] = Tissue distribution study in rats; type: in vivo; settings: rat
Experimental: Tissue distribution characteristics were studied following different deliveries of i.v. 3 mg/kg, i.t. 0.3 mg/kg, and i.t. 3 mg/kg in rats. The rats were euthanized at 5 min, 30 min, 1 h, 4 h, 12 h, and 24 h after administration. Blood was collected by puncture of the fundus venous plexus, and bronchoalveolar lavage was performed to obtain bronchoalveolar lavage (BAL) fluid samples, and then the main tissues were obtained by dissection. All the tissues were thoroughly rinsed in ice physiological saline, then weighed and stored at −40 °C for analysis.
Whole blood was placed in EP tubes containing sodium heparin, and plasma was extracted by centrifugation at 4 °C, 5000× g for 10 min. […] Drug concentrations in the samples were determined using the LC-MS/MS method and drug concentrations in the BAL were converted to drug concentrations in epithelial lining fluid (ELF) using the urea nitrogen correction method.
The apparent volume of ELF in BAL fluid was determined by the urea dilution method described by Rennard. The estimated concentration of drugs in ELF was calculated as follows:CELF = CBAL × (UPlasma/UBAL)(1) where CBAL is the measured drug concentration in BAL fluid and UPlasma and UBAL are the measured concentrations of urea nitrogen in plasma and BAL fluid, respectively.
The Kp of each tissue was calculated as follows:Kp = AUC(0–t, tissue)/AUC(0–t, plasma)(2)

[2] = system: LLC-PK1 cells; experiment: Permeability assay, LLC-PK1-MOCK cells; type: in vitro ADME; settings: LLC-PK1, 2 μM, Mean ± SD, n = 3
Experimental: When the cell transport system was mature in culture, experiments were performed. […] When assessing permeability in basolateral to apical (B-A) direction, 100 μL of pre-warmed Buffer B and 600 μL of pre-warmed test solutions were added to the apical and basolateral compartments, respectively. The Transwells® were placed in an incubator at 37 °C and 5% CO2 for a duration of 2 h. At the end of the incubation period, the samples in the apical and basolateral sides were collected separately and were briefly kept at a temperature of −40 °C for LC-MS/MS analysis. […] The cells were transferred to Transwell® plates (Corning, NY, USA) at a density of 2 × 10^4 cells/well with 200 μL of cell suspension per well, while 850 μL of complete medium was added to the basolateral chamber. […] The samples were collected separately and were briefly kept at a temperature of −40 °C for LC-MS/MS analysis.

[3] = system: A549 cells; experiment: Uptake study by A549 cells; type: in vitro ADME, human; settings: 10 µM, 37 °C or 4 °C
Experimental: A549 cells were cultured in DMEM medium supplemented with 10% FBS and PS (100 U/mL) at 37 °C in a humidified 5% CO2 incubator. Cells were seeded on 24-well plates at a density of 3 × 10^4 cells/well. For the uptake assay, the DMEM media were removed, and the cells were washed with pre-warmed Hank’s buffer three times (1 mL/well). The third washing buffer was retained in the wells, and the plate was placed in an incubator at 37 °C or 4 °C for 30 min prior to the initiation of the uptake experiment. Following the removal of the washing buffer, 200 μL of pre-warmed test drug solution (Hank’s buffer containing the 10 µM peramivir) was added into each well, and the plates were incubated at 37 °C or 4 °C for 2, 5, and 15 min. Then the incubation solution was removed, and the cells were washed with ice-cold transportation buffer three times (1 mL/well). A total of 0.2 mL pure water was added to each well to lyse the cells by repeated freezing and thawing (−196 °C~37 °C, three times). The cell lysate was collected and stored at −40 °C for LC-MS/MS analysis and protein measurement.

[4] = biological target: T1, human OCTN1 (Homo sapiens, UniProt Q9H015); experiment: Uptake study, MDCK cells overexpressing OCTN1; type: in vitro ADME
T1 construct: Huidi Jiang, Zhejiang University; host or cells: MDCK (MDCK-OCTN1); control MDCK-MOCK
T1 sequence (Q9H015 1-551): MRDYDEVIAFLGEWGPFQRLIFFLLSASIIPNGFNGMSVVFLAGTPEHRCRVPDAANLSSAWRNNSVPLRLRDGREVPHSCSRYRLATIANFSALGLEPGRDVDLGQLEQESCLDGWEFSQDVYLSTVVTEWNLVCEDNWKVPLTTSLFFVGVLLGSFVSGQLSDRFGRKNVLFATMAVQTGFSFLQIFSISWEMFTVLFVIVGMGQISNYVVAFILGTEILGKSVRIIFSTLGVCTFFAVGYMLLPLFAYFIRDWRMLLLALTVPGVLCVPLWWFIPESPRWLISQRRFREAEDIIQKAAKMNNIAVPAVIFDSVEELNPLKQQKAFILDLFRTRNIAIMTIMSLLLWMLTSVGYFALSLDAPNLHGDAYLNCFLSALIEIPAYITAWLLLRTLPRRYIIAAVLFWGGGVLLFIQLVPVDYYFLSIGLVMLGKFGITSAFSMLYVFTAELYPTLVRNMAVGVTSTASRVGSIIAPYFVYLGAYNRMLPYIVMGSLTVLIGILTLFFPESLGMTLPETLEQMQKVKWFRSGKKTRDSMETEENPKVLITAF
Experimental: (§1) All cells (HEK293-MOCK, HEK293-OCT1, HEK293-OCT2, MDCK-MOCK, MDCK-OCTN1, and MDCK-OCTN2) were cultured in DMEM medium supplemented with 10% FBS and PS (100 U/mL), at 37 °C in a humidified 5% CO2 incubator. Cells were seeded on 24-well plates at a density of 1 × 10^4 cells/well. For the uptake assay, the DMEM media were removed, and the cells were washed with pre-warmed Hank’s buffer three times (1 mL/well). Subsequent addition of inhibitor-free/inhibitor-containing buffer was pre-incubated for 30 min at 37 °C prior to the initiation of the uptake experiment. After the pre-incubating buffer was removed, 200 μL of pre-warmed test drugs solution (Hank’s buffer containing 10 µM and 50 µM peramivir) or a mixture of test drugs and inhibitor was added into each well, and the plates were incubated at 37 °C for 5 min. At the end of incubation, cells were washed and lysed as described above. The cell lysate was collected and stored at −40 °C for LC-MS/MS analysis and protein measurement. The negative control (MOCK cells) and positive control were included simultaneously.

[5] = biological target: T2, human OCTN2 (Homo sapiens, UniProt O76082); experiment: Uptake study, MDCK cells overexpressing OCTN2; type: in vitro ADME
T2 construct: Huidi Jiang, Zhejiang University; host or cells: MDCK (MDCK-OCTN2); control MDCK-MOCK
T2 sequence (O76082 1-557): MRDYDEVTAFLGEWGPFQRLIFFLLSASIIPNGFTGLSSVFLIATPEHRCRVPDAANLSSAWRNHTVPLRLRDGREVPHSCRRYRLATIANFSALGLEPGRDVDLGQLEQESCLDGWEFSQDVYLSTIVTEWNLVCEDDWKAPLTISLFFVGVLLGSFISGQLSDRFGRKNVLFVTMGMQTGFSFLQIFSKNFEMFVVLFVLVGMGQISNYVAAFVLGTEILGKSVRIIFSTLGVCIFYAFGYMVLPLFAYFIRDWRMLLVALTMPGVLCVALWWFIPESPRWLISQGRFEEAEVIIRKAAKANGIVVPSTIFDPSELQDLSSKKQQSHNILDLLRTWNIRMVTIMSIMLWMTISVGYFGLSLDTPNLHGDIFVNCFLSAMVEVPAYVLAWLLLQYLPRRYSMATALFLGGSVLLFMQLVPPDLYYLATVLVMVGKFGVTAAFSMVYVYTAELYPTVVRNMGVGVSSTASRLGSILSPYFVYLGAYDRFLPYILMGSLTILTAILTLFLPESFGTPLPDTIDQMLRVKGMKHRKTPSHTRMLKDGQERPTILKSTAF
Experimental: as §1

CCC(CC)[C@H](NC(C)=O)[C@@H]1[C@H](O)[C@@H](C(=O)O)C[C@H]1N=C(N)N [Peramivir]
exposure in alveolar epithelial lining fluid after inhalation relative to equivalent i.v. dose [1]: exceeding 370 times | tissue–plasma partition coefficient, Kp ([1]; intravenous, all tissues except renal and alveolar epithelial lining): < 1 | Papp A-B [2]: BLQ | Papp B-A [2]: 0.21 ± 0.04 ×10−6 cm/s | uptake rate in A549 cell model [3]: low | OCTN1 substrate status ([4]; MDCK-OCTN1): does not conclusively establish peramivir as a substrate for OCTN1 | transporter-mediated uptake ratio (UR value) ([4]; MDCK-OCTN1, 50 μM): 3.19 | inhibition ratio (IR value) ([4]; MDCK-OCTN1, 50 μM, inhibitor quinidine (500 μM)): 40.22% | OCTN2 substrate status ([5]; MDCK-OCTN2): confirming peramivir as a substrate for the OCTN2 transporter | transporter-mediated uptake ratio (UR value) ([5]; MDCK-OCTN2, 50 μM): 41.62 | inhibition ratio (IR value) ([5]; MDCK-OCTN2, 50 μM, inhibitor L-carnitine (200 μM)): 65.69%
